The values below come from patent US6514963B2, “Methods for the inhibition of egg production in trematodes” (The Regents of the University of California, priority 2000, dated 2003).

Assay [1] concerns the target T1, L channels of isolated skeletal muscle (Oryctolagus cuniculus, UniProt P07293).
T1 construct: host or cells: isolated skeletal muscle
As to conditions: read-out: concentration of calcium required for 50% inhibition (Ki) of verapamil binding; isolated skeletal muscle (Galizzi et al. 1984); cited from earlier work.

The next assay deals with Echinostoma caproni. As to conditions: elevated concentrations (microgram range: verapamil 50-200, nifedipine 25-200, diltiazem 5-50 μg/ml), 24 hours, ANOVA.
Another assay deals with Schistosoma mansoni. Put plainly: Schistosoma mansoni in vitro egg production, eight day culture of worm pairs. In kind it is cell-based.

T1 sequence (P07293 whole entry): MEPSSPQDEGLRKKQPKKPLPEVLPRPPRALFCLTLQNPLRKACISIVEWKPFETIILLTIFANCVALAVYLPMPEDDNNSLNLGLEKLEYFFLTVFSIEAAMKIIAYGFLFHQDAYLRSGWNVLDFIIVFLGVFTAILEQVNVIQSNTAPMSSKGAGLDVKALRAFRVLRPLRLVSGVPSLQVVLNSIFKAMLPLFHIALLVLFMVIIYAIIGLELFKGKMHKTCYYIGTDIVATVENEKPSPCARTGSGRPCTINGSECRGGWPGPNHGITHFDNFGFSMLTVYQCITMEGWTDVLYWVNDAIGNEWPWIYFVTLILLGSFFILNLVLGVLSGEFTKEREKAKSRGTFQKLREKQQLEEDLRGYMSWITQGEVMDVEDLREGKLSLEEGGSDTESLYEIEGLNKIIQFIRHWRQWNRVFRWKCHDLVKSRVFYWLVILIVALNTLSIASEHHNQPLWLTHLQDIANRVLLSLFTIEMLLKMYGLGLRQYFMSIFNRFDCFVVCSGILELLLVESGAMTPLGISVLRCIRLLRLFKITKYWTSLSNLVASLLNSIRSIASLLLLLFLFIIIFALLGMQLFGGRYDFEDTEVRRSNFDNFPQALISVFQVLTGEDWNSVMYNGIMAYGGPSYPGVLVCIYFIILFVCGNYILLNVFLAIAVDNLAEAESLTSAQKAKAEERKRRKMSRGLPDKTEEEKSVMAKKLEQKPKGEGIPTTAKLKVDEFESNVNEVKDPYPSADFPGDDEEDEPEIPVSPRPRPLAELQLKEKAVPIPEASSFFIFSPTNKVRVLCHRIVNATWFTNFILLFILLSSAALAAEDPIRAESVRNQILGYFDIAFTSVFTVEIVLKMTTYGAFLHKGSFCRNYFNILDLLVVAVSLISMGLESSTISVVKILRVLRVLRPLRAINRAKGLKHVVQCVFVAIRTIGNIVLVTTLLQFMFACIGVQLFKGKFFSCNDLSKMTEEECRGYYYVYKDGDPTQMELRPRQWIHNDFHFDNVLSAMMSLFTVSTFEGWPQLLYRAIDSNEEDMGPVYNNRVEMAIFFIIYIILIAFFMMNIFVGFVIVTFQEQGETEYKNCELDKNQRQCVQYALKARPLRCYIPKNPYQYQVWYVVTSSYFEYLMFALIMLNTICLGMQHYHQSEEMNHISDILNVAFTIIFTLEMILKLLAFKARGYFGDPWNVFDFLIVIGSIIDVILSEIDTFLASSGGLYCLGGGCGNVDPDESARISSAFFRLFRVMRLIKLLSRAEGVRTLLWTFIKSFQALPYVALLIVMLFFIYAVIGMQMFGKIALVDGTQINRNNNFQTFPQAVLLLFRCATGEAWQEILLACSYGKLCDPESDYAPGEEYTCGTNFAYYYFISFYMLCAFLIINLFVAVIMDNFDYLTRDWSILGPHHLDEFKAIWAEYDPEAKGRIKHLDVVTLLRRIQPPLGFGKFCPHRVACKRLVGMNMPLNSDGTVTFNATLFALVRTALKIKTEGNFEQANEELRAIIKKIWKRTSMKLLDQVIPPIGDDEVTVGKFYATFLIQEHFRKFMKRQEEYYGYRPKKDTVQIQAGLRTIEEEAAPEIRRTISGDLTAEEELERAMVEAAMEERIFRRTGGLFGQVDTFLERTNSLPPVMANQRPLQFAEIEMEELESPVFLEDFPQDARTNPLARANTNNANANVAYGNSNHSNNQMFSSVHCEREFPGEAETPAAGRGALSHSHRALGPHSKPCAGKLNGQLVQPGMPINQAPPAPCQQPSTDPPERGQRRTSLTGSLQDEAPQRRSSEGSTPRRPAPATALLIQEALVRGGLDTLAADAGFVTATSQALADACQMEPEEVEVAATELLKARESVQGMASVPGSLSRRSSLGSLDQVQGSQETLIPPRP
T1 sequence (P13806 27-960 partner limits assumed): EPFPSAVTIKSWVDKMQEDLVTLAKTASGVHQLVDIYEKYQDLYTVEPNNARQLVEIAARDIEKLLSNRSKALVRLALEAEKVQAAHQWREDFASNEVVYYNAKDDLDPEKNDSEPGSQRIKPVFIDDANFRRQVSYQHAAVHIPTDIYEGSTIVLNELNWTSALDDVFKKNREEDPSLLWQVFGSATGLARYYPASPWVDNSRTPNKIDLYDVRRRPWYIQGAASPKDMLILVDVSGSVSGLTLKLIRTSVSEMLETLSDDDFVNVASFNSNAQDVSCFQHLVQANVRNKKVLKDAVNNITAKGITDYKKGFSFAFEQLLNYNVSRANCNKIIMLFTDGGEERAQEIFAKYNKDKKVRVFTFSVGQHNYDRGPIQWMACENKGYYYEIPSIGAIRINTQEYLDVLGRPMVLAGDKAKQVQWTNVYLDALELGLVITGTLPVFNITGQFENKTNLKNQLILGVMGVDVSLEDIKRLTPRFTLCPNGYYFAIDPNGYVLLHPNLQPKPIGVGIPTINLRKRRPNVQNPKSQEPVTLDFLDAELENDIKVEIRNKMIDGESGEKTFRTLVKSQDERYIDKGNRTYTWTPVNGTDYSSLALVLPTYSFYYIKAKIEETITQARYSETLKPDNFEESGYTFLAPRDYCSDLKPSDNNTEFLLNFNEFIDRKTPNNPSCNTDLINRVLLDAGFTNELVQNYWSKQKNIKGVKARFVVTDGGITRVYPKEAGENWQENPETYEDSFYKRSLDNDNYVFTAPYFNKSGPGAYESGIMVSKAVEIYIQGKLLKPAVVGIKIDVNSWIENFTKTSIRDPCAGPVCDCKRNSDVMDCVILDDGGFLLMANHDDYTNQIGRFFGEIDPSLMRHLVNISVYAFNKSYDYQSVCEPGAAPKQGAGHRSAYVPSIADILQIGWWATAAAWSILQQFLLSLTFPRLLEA
T1 sequence (P13806 961-1106 partner limits assumed): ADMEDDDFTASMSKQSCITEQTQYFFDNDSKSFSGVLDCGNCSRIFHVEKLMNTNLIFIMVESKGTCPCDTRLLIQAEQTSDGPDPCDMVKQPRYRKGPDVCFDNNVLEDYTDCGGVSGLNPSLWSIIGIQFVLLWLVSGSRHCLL
T1 sequence (P19517 whole entry partner): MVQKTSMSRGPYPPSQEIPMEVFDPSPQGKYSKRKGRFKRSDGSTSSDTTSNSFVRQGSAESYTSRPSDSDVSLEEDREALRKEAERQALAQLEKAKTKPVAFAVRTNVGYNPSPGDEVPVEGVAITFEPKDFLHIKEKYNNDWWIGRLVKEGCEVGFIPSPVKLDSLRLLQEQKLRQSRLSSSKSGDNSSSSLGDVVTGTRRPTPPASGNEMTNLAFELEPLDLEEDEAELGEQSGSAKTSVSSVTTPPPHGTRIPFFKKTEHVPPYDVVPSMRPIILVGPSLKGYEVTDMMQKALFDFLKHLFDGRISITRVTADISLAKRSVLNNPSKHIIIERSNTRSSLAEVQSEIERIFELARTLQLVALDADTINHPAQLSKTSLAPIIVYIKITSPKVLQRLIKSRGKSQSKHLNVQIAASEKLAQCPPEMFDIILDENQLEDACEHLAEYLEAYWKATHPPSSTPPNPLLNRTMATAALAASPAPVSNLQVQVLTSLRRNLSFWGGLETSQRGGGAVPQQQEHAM
T1 sequence (P19518 whole entry partner): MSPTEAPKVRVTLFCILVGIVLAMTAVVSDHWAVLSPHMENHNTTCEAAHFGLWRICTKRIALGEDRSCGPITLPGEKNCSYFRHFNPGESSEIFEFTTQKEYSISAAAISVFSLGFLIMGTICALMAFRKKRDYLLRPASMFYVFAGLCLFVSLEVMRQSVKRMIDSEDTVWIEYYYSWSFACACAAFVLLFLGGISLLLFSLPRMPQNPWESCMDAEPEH

Consider `[Ca]` [calcium], for which the Ki in assay [1] is about 300 µM.
In the case of `COc1ccc(CCN(C)CCCC(C#N)(c2ccc(OC)c(OC)c2)C(C)C)cc1OC` (stereo not drawn) [verapamil, α-[3-[[2-(3,4-dimethoxyphenyl)ethyl]methyl-amine]propyl]-3,4-dimethoxy-α-(1-methylethyl)-benzeneacetonitrile], the “effect on egg production compared to controls” value with Echinostoma caproni was “significantly inhibited”. The “effect on proportion of worms which did not produce eggs until after 48 hours of culture” value in the assay on Schistosoma mansoni (0.25 μg/ml) was “not”; with Schistosoma mansoni (2.5 μg/ml, Fisher's exact test, p=0.013), “significantly increased”. For the same molecule, in the assay on Schistosoma mansoni (0.25 μg/ml and 2.5 μg/ml, Chi Square 4.15, p=0.386), the “effect on proportion of worms producing eggs in the three production categories” value is listed as “did not significantly affect”. The “decrease in the total number of eggs produced by all worms of the treatment group” value in the assay on Schistosoma mansoni (2.5 μg/ml, eight days) was 38%; with Schistosoma mansoni (50 μg/ml, eight days), 100%. The “worms in the highest egg-production category” value with Schistosoma mansoni (2.5 μg/ml, control worms 34%) is recorded as 15%. In the assay on Schistosoma mansoni (25 μg/ml as printed, control worms 17%), this molecule displayed a proportion of non-producers of 30%. In addition, in the assay on Schistosoma mansoni (50 μg, Fisher Exact test, 2-tailed, p<0.0001), the “effect on proportion of non-producers, pairwise comparison with control” value was “significantly affected egg production”. In addition, the egg production entry with Schistosoma mansoni (50 μg/ml, eight days) is listed as “no eggs were produced at any time”. In addition, the “number of worms producing eggs 48+ Hours” value turned out to be 8 in the assay with Schistosoma mansoni (verapamil 0.25 μg/ml), 14 in the assay on Schistosoma mansoni (verapamil 2.5 μg/ml) and 0 in the assay on Schistosoma mansoni (verapamil 50 μg/ml). The figures for the “number of worms producing eggs within 48 Hours” value in the assay on Schistosoma mansoni (verapamil 0.25 μg/ml), with Schistosoma mansoni (verapamil 2.5 μg/ml) and in the assay on Schistosoma mansoni (verapamil 50 μg/ml) were 24, 14 and 0, respectively.
